Each compound was assayed against Wild type FGFR2 (Homo sapiens (Human), UniProt P21802) (assay: FGFR2 kinase assay (fluorescence-based microfluidic mobility shift assay)). Conditions: wild type FGFR2 0.06 nM, 100 μM ATP, 80 minutes at room temperature; class symbols.
Sequence of Wild type FGFR2 (P21802 22-821): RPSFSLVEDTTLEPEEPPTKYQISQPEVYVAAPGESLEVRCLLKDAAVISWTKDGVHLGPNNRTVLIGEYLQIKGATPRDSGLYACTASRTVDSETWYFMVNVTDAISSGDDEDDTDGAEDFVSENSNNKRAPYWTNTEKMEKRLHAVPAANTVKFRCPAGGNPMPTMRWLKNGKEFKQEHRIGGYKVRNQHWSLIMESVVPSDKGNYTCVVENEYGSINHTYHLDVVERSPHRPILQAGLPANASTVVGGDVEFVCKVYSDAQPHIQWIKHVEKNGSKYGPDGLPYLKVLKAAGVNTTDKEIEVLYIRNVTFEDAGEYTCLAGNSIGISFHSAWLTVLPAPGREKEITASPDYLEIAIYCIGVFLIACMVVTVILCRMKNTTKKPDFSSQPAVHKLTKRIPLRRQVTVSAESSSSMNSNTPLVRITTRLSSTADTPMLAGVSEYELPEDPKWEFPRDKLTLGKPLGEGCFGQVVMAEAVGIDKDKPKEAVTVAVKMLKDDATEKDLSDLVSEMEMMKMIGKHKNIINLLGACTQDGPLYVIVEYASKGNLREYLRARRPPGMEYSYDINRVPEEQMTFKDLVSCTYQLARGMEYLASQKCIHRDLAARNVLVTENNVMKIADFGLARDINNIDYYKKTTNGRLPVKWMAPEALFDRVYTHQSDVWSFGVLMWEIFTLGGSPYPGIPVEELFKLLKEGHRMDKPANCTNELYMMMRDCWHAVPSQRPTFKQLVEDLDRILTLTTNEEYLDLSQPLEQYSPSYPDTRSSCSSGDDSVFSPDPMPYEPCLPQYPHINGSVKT
Assay type: biochemical
`C=CC(=O)N1C[C@@H](n2cc(C#Cc3cc(F)c4c(c3)ncn4C)c(C(N)=O)c2NC)C[C@@H]1COC` [Example 121, 1-((3S,5S)-1-Acryloyl-5-(methoxymethy)pyrrolidin-3-yl)-3-((7-fluoro-1-methyl-1H-benzo[d]imidazol-5-yl)ethynyl)-5-(methylamino)-1H-pyrazole-4-carboxamide] was tested, and the IC50 was no more than 100 nM. `C=CC(=O)N1C[C@@H](n2nc(C#Cc3cn4ncnc4cc3F)c(C(N)=O)c2NC)C[C@@H]1COC` [Example 122, 3-(2-[7-Fluoro-[1,2,4]triazolo[1,5-a]pyridin-6-yl]ethynyl)-1-[(3S,5R)-5-(methoxymethyl)-1-(prop-2-enoyl)pyrrolidin-3-yl]-5-(methylamino)pyrazole-4-carboxamide] was tested, and the IC50 was 100 to 1000 nM. `C=CC(=O)N1CC[C@H](n2nc(C#Cc3c(F)cc4c(ncn4CC)c3F)c(C(N)=O)c2NCCO)C1` [Example 123, 3-[2-(1-Ethyl-4,6-difluoro-1,3-benzodiazol-5-yl)ethynyl]-5-[(2-hydroxyethyl)amino]-1-[(3S)-1-(prop-2-enoyl)pyrrolidin-3-yl]pyrazole-4-carboxamide] showed an IC50 of no more than 100 nM. In the case of `C=CC(=O)N1C[C@@H](n2nc(C#Cc3cc4ncn(CC)c4c(F)c3F)c(C(N)=O)c2NC)C[C@@H]1COC` [Example 125, 3-[2-(1-Ethyl-6,7-difluoro-1,3-benzodiazol-5-yl)ethynyl]-1-[(3S,5R)-5-(methoxymethyl)-1-(prop-2-enoyl)pyrrolidin-3-yl]-5-(methylamino)pyrazole-4-carboxamide], the IC50 is reported as no more than 100 nM. For `C=CC(=O)N1C[C@@H](n2nc(C#Cc3cc4ncn(CC)c4c(F)c3Cl)c(C(N)=O)c2NC)C[C@@H]1COC` [Example 126, 3-[2-(6-Chloro-1-ethyl-7-fluoro-1,3-benzodiazol-5-yl)ethynyl]-1-[(3S,5R)-5-(methoxymethyl)-1-(prop-2-enoyl)pyrrolidin-3-yl]-5-(methylamino)pyrazole-4-carboxamide], the IC50 was no more than 100 nM. `C=CC(=O)N1C[C@@H](n2nc(C#Cc3cc4nc(C)n(C)c4c(F)c3F)c(C(N)=O)c2NC)C[C@@H]1COC` [Example 127, 3-[2-(6,7-Difluoro-1,2-dimethyl-1,3-benzodiazol-5-yl)ethynyl]-1-[(3S,5R)-5-(methoxymethyl)-1-(prop-2-enoyl)pyrrolidin-3-yl]-5-(methylamino) pyrazole-4-carboxamide] showed an IC50 of no more than 100 nM. With `C=CC(=O)N1C[C@@H](n2nc(C#Cc3cc4nc(C)n(C)c4c(F)c3Cl)c(C(N)=O)c2NC)C[C@@H]1COC` [Example 128, 3-[2-(6-Chloro-7-fluoro-1,2-dimethyl-1,3-benzodiazol-5-yl)ethynyl]-1-[(3S,5R)-5-(methoxymethyl)-1-(prop-2-enoyl)pyrrolidin-3-yl]-5-(methylamino)pyrazole-4-carboxamide] the IC50 was no more than 100 nM. With `C=C(F)C(=O)N1C[C@@H](n2nc(C#Cc3cc4ncn(CC)c4cc3Cl)c(C(N)=O)c2NC)C[C@@H]1COC` [Example 129, 3-[2-(6-Chloro-1-ethyl-1,3-benzodiazol-5-yl)ethynyl]-1-[(3S,5R)-1-(2-fluoroprop-2-enoyl)-5-(methoxymethyl)pyrrolidin-3-yl]-5-(methylamino)pyrazole-4-carboxamide] the IC50 was 100 to 1000 nM. `C=CC(=O)N1C[C@@H](n2nc(C#Cc3cc4ncnn4cc3F)c(C(N)=O)c2NC)C[C@@H]1COC` [Example 130, 3-(2-[6-Fluoro-[1,2,4]triazolo[1,5-a]pyridin-7-yl]-ethynyl)-1-[(3S,5R)-5-(methoxymethyl)-1-(prop-2-enoyl)pyrrolidin-3-yl]-5-(methylamino)pyrazole-4-carboxamide] gave an IC50 of no more than 100 nM. `C=CC(=O)N1C[C@@H](n2nc(C#Cc3cc4nccn4cc3F)c(C(N)=O)c2NC)C[C@@H]1COC` [Example 132, 1-((3S,5R)-1-Acryloyl-5-(methoxymethyl)pyrrolidin-3-yl)-3-((6-fluoroimidazo[1,2-a]pyridin-7-yl)ethynyl)-5-(methylamino)-1H-pyrazole-4-carboxamide] was tested, and the IC50 was no more than 100 nM. With `C=CC(=O)N1C[C@@H](n2nc(C#Cc3c(Cl)cc4c(nc(C)n4C)c3F)c(C(N)=O)c2NC)C[C@@H]1COC` [Example 133, 3-[2-(6-Chloro-4-fluoro-1,2-dimethyl-1,3-benzodiazol-5-yl)ethynyl]-1-[(3S,5R)-5-(methoxymethyl)-1-(prop-2-enoyl)pyrrolidin-3-yl]-5-(methylamino)pyrazole-4-carboxamide] the IC50 was no more than 100 nM. Compound `C=CC(=O)N1CC[C@H](n2nc(C#Cc3cc4ncn(C5CC5)c4cc3F)c(C(N)=O)c2NC)C1` [Example 136, 3-[2-(1-Cyclopropyl-6-fluoro-1,3-benzodiazol-5-yl)ethynyl]-5-(methylamino)-1-[(3S)-1-(prop-2-enoyl)pyrrolidin-3-yl]pyrazole-4-carboxamide] has an IC50 of no more than 100 nM. `CC#CC(=O)N1C[C@@H](n2nc(C#Cc3c(F)cc4c(ncn4CC)c3F)c(C(N)=O)c2NC)C[C@@H]1COC` [Example 137, 1-[(3S,5R)-1-(but-2-ynoyl)-5-(methoxymethyl)pyrrolidin-3-yl]-3-[2-(1-ethyl-4,6-difluoro-1,3-benzodiazol-5-yl)ethynyl]-5-(methylamino)pyrazole-4-carboxamide] was tested, and the IC50 was no more than 100 nM. In the case of `[2H]C([2H])([2H])OC[C@H]1C[C@H](n2nc(C#Cc3cc4ncn(CC)c4cc3Cl)c(C(N)=O)c2NC)CN1C(=O)C=C` [Example 138, 1-((3S,5R)-1-acryloyl-5-((methoxy-d3)methyl)pyrrolidin-3-yl)-3-((6-chloro-1-ethyl-1H-benzo[d]imidazol-5-yl)ethynyl)-5-(methylamino)-1H-pyrazole-4-carboxamide], the IC50 is reported as no more than 100 nM. In the case of `C=CC(=O)N1CC[C@H](n2nc(C#Cc3cc4ncn(C)c4cc3F)c(C(N)=O)c2NC)C1` [Example 139, 3-[2-(6-Fluoro-1-methyl-1,3-benzodiazol-5-yl)ethynyl]-5-(methylamino)-1-[(3S)-1-(prop-2-enoyl)pyrrolidin-3-yl]pyrazole-4-carboxamide], the IC50 is reported as no more than 100 nM. `C=CC(=O)N1CC[C@H](n2nc(C#Cc3cc4ncn(CC)c4c(F)c3F)c(C(N)=O)c2NC)C1` [Example 140, 3-[2-(1-Ethyl-6,7-difluoro-1,3-benzodiazol-5-yl)ethynyl]-5-(methylamino)-1-[(3S)-1-(prop-2-enoyl)pyrrolidin-3-yl]pyrazole-4-carboxamide] gave an IC50 of no more than 100 nM. With `C=CC(=O)N1CC[C@H](n2nc(C#Cc3cc4ncn(CC)c4c(F)c3Cl)c(C(N)=O)c2NC)C1` [Example 141, 3-[2-(6-Chloro-1-ethyl-7-fluoro-1,3-benzodiazol-5-yl)ethynyl]-5-(methylamino)-1-[(3S)-1-(prop-2-enoyl)pyrrolidin-3-yl]pyrazole-4-carboxamide] the IC50 was no more than 100 nM. In the case of `C=CC(=O)N1CC[C@H](n2nc(C#Cc3cc4ncn(C)c4c(F)c3Cl)c(C(N)=O)c2NC)C1` [Example 142, 3-[2-(6-Chloro-7-fluoro-1-methyl-1,3-benzodiazol-5-yl)ethynyl]-5-(methylamino)-1-[(3S)-1-(prop-2-enoyl)pyrrolidin-3-yl]pyrazole-4-carboxamide], the IC50 is reported as no more than 100 nM. Work on `C=CC(=O)N1CC[C@H](n2nc(C#Cc3cc4ncn(CC)c4cc3F)c(C(N)=O)c2NC)C1` [Example 143, 3-[2-(1-Ethyl-6-fluoro-1,3-benzodiazol-5-yl)ethynyl]-5-(methylamino)-1-[(3S)-1-(prop-2-enoyl)pyrrolidin-3-yl]pyrazole-4-carboxamide] yielded an IC50 of no more than 100 nM. In the case of `C=CC(=O)N1CC[C@H](n2nc(C#Cc3cc4ncn(C)c4cc3Cl)c(C(N)=O)c2NC)C1` [Example 144, 3-[2-(6-Chloro-1-methyl-1,3-benzodiazol-5-yl)ethynyl]-5-(methylamino)-1-[(3S)-1-(prop-2-enoyl)pyrrolidin-3-yl]pyrazole-4-carboxamide], the IC50 is reported as no more than 100 nM. With `C=CC(=O)N1CC[C@H](n2nc(C#Cc3cc4ncn(C)c4c(F)c3F)c(C(N)=O)c2NC)C1` [Example 145, 3-[2-(6,7-Difluoro-1-methyl-1,3-benzodiazol-5-yl)ethynyl]-5-(methylamino)-1-[(3S)-1-(prop-2-enoyl)pyrrolidin-3-yl]pyrazole-4-carboxamide] the IC50 was no more than 100 nM. For `C=CC(=O)N1C[C@@H](n2nc(C#Cc3cc4ncn(C5CC5)c4c(F)c3Cl)c(C(N)=O)c2NC)C[C@@H]1COC` [Example 147, 3-[2-(6-Chloro-1-cyclopropyl-7-fluoro-1,3-benzodiazol-5-yl)ethynyl]-1-[(3S,5R)-5-(methoxymethyl)-1-(prop-2-enoyl)pyrrolidin-3-yl]-5-(methylamino)pyrazole-4-carboxamide], the IC50 was no more than 100 nM. For `C=CC(=O)N1C[C@@H](n2nc(C#Cc3cc4ncn(C)c4cc3F)c(C(N)=O)c2NC)C[C@@H]1CF` [Example 148, 3-[2-(6-Fluoro-1-methyl-1,3-benzodiazol-5-yl)ethynyl]-1-[(3S,5R)-5-(fluoromethyl)-1-(prop-2-enoyl)pyrrolidin-3-yl]-5-(methylamino)pyrazole-4-carboxamide], the IC50 was no more than 100 nM. For `C=CC(=O)N1C[C@@H](n2nc(C#Cc3c(F)c(F)c4c(nc(C)n4C)c3F)c(C(N)=O)c2NC)C[C@@H]1COC` [Example 149, 1-[(3S,5R)-5-(Methoxymethyl)-1-(prop-2-enoyl)pyrrolidin-3-yl]-5-(methylamino)-3-[2-(4,6,7-trifluoro-1,2-dimethyl-1,3-benzodiazol-5-yl)ethynyl]pyrazole-4-carboxamide], the IC50 was no more than 100 nM. `C=CC(=O)N1C[C@@H](n2nc(C#Cc3cc4nc(C)n(C5CC5)c4cc3F)c(C(N)=O)c2NC)C[C@@H]1COC` [Example 150, 3-[2-(1-Cyclopropyl-6-fluoro-2-methyl-1,3-benzodiazol-5-yl)ethynyl]-1-[(3S,5R)-5-(methoxymethyl)-1-(prop-2-enoyl)pyrrolidin-3-yl]-5-(methylamino)pyrazole-4-carboxamide] was tested, and the IC50 was no more than 100 nM. Work on `C=CC(=O)N1C[C@@H](n2nc(C#Cc3cc4ncn(C5CC5)c4c(F)c3F)c(C(N)=O)c2NC)C[C@@H]1COC` [Example 151, 3-[2-(1-Cyclopropy-6,7-difluoro-1,3-benzodiazol-5-yl)ethynyl]-1-[(3S,5R)-5-(methoxymethyl)-1-(prop-2-enoyl)pyrrolidin-3-yl]-5-(methylamino)pyrazole-4-carboxamide] yielded an IC50 of no more than 100 nM.
